Data published in patent US8193351B2, “HSP90 inhibitor” (Chugai Seiyaku Kabushiki Kaisha, priority 2006, dated 2012).

What was measured:
[1] = biological target: T1, Human HSP90 alpha (Homo sapiens, UniProt P07900); experiment: Measurement of HSP90 enzyme inhibitory activity (ATPase, malachite green); assay type: biochemical; conditions: purified human HSP90 alpha, 1 mM ATP added, 37° C., two hours; read-out: Enzyme inhibitory activity (IC50, μM) Human HSP 90α
T1 construct: made in house; host or cells: E. coli BL21 codon plus (Stratagene)
Method: HSP90 enzyme inhibitory activity of the compounds of the present invention represented by formula (1) was measured by the following method. Among the 6-phenyl-N-phenyl-(1,3,5)triazin/(1,3)pyrimidin-2,4-diamine derivatives which are known LPAAT-β inhibitors, the following two compounds were used as comparative compounds, and their HSP90 enzyme inhibitory activities were measured similarly by the following method.
Introduction of pETHuHSP90a into E. coli (BL21 codon plus; Stratagene) was followed by O/N incubation in the presence of 0.1 mM IPTG, and the collected E. coli cells were disrupted by ultrasonication in a Lysis buffer (50 mM Tris-HCl (pH8.0), 10 mM MgCl2, 0.1% Triton X-100, Protease inhibitor cocktail tablets (Roche Diagnostics)). The cell lysate solution was centrifuged (10,000 rpm×30 minutes), and the supernatant obtained after centrifugation was used as a crude extract. The crude extract was fractionated using HisPrep FF column and HiTrap Q column (Amersham) to prepare a purified enzyme solution.
An enzyme solution for assays was prepared by dilution of the purified enzyme solution using an assay buffer (50 mM Tris HCl pH7.6, 20 mM KCl, 5 mM MgCl2).
10 μL each of various concentrations of the test substances (10% DMSO solution) was added to each well, and for the positive control wells, 10 μL of 10% DMSO was added. 10 μL of 10% DMSO was also added to the negative control well.
10 μL of 1 mM ATP was added to all of the wells, and the reaction was carried out at 37° C. for two hours.

[2] = tested on: HCT116 cells; experiment: Measurement of cell growth inhibition (Cell Counting Kit-8, four days); assay type: cell-based; conditions: Homo sapiens, HCT-116, 96 h; HCT116 colon cancer cell line, four days culture; read-out: Cell growth inhibitory activity (IC50, μM) HCT116
Method: Cell growth inhibitory activities of the compounds of the present invention represented by formula (1) were measured by the following method.
Cells were maintained under conditions recommended by the provider of each cell line. Cells suspended in a medium were added to solutions containing various concentrations of the test substance, and the cells were cultured at 37° C. in a 5% CO2 incubator. Four days later, Cell Counting Kit-8 was added, and absorbance measurements were taken following the protocol included in the kit.

Row | SMILES | IC50 [1] [µM] | IC50 [2] [µM]
1 | CSc1nc(N)nc(-c2ccccc2)n1 [4-methylsulfanyl-6-phenyl-[1,3,5]triazin-2-ylamine, reference compound] | 33.8 | –
2 | Nc1nc(SCc2ccccc2)nc(-c2cc(OCc3ccccc3)c(Cl)cc2Cl)n1 [Example 4, 4-(5-benzyloxy-2,4-dichlorophenyl)-6-benzylsulfanyl[1,3,5]triazin-2-ylamine] | 1.2 | 8.5
3 | COc1cc(C(=O)N2CCN(C)CC2)ccc1Sc1nc(N)nc(-c2cc(OCC#N)c(Cl)cc2Cl)n1 [Example 15, (5-{4-amino-6-[2-methoxy-4-(4-methyl-piperazin-1-carbonyl)-phenylsulfanyl]-[1,3,5]triazin-2-yl}-2,4-dichlorophenoxy)-acetonitrile] | 2 | 0.35
4 | CSc1nc(N)nc(-c2cc(-c3ncccn3)c(Cl)cc2Cl)n1 [Example 24, 4-(2,4-dichloro-5-pyrimidin-2-yl-phenyl)-6-methylsulfanyl-[1,3,5]triazin-2-ylamine] | 2.1 | 1
5 | CC(=O)NCCSc1nc(N)nc(-c2cc(-c3ncccn3)c(Cl)cc2Cl)n1 [Example 25, N-{2-[4-amino-6-(2,4-dichloro-5-pyrimidin-2-yl-phenyl)-[1,3,5]triazin-2-ylsulfanyl]-ethyl}-acetamide] | 2.6 | 0.66
6 | NC(=O)c1cc(-c2nc(N)nc(SCc3ccccc3)n2)c(Cl)cc1Cl [Example 26, 5-(4-amino-6-benzylsulfanyl-[1,3,5]triazin-2-yl)-2,4-dichlorobenzamide] | 2.8 | 1.3
7 | Nc1nc(SCc2ccccc2)nc(-c2cc(C(=O)NC(CO)CO)c(Cl)cc2Cl)n1 [Example 28, 5-(4-amino-6-benzylsulfanyl-[1,3,5]triazin-2-yl)-2,4-dichloro-N-(2-hydroxy-1-hydroxymethylethyl)-benzamide] | 1.2 | 1.2
8 | COC(=O)c1cc(-c2nc(N)nc(SCC(O)CO)n2)c(C)cc1C (centres unmarked) [Example 37, 5-[4-amino-6-(2,3-dihydroxypropylsulfanyl)-[1,3,5]triazin-2-yl]-2,4-dimethylbenzoic acid methyl ester] | 1.4 | 6.6
9 | COc1ccc(OC)c(Sc2cc(-c3ccc(Cl)cc3Cl)nc(N)n2)c1 [Example 39, 4-(2,4-dichlorophenyl)-6-(2,5-dimethoxyphenylsulfanyl)-pyrimidin-2-ylamine] | 1.8 | 8.5
10 | COc1ccc(OC)c(Sc2cc(-c3ccc(OCCCO)cc3C)nc(N)n2)c1 [Example 44, 3-{4-[2-amino-6-(2,5-dimethoxyphenylsulfanyl)-pyrimidin-4-yl]-3-methylphenoxy}-propan-1-ol] | 2.2 | 14.5
11 | COc1ccc(OC)c(Sc2cc(-c3ccc(OCC#N)cc3C)nc(N)n2)c1 [Example 45, {4-[2-amino-6-(2,5-dimethoxyphenylsulfanyl)-pyrimidin-4-yl]-3-methylphenoxy}-acetonitrile] | 1.4 | 4.1
12 | COc1ccc(OC)c(Sc2cc(-c3ccc(OCC(N)=O)cc3C)nc(N)n2)c1 [Example 46, 2-{4-[2-amino-6-(2,5-dimethoxyphenylsulfanyl)-pyrimidin-4-yl]-3-methylphenoxy}-acetamide] | 1.5 | 8.1
13 | COc1ccc(OC)c(Sc2cc(-c3cc(OCc4ccccc4)c(Cl)cc3Cl)nc(N)n2)c1 [Example 48, 4-(5-benzyloxy-2,4-dichlorophenyl)-6-(2,5-dimethoxyphenylsulfanyl)-pyrimidin-2-ylamine] | 2.5 | 42.9
14 | COc1ccc(OC)c(Sc2cc(-c3cc(OCC#N)c(Cl)cc3Cl)nc(N)n2)c1 [Example 52, {5-[2-amino-6-(2,5-dimethoxyphenylsulfanyl)-pyrimidin-4-yl]-2,4-dichlorophenyoxy}-acetonitrile] | 1.7 | 1.4
15 | N#CCOc1cc(-c2cc(Sc3nc4ccccc4[nH]3)nc(N)n2)c(Cl)cc1Cl [Example 54, {5-[2-amino-6-(1H-benzimidazol-2-ylsulfanyl)-pyrimidin-4-yl]-2,4-dichlorophenoxy}-acetonitrile] | 1.5 | 1.1
16 | CCOC(=O)c1cnc(Sc2cc(-c3cc(OCC#N)c(Cl)cc3Cl)nc(N)n2)[nH]1 [Example 55, 2-[2-amino-6-(2,4-dichloro-5-cyanomethoxyphenyl)-pyrimidin-4-ylsulfanyl]-3H-imidazol-4-carboxylic acid ethyl ester] | 1.7 | 5.3
17 | CC(=O)NCCSc1nc(N)nc(-c2cc(OCC#N)c(Cl)cc2Cl)n1 [Example 59, N-{2-[4-amino-6-(2,4-dichloro-5-cyanomethoxy-phenyl)-[1,3,5]triazin-2-ylsulfanyl]-ethyl}-acetamide] | 1 | 0.12
18 | N#CCOc1cc(-c2nc(N)nc(SCCC(=O)N3CCOCC3)n2)c(Cl)cc1Cl [Example 63, {5-[4-amino-6-(3-morpholin-4-yl-3-oxo-propylsulfanyl)-[1,3,5]triazin-2-yl]-2,4-dichlorophenoxy}-acetonitrile] | 2 | 0.74
19 | COc1ccc(Oc2nc(N)nc(-c3c(Cl)cc4c5c(cccc35)COC4)n2)cc1OC [Example 82, 4-(5-chloro-1H,3H-benzo[de]isochromen-6-yl)-6-(3,4-dimethoxyphenoxy)-[1,3,5]triazin-2-ylamine] | 1.4 | 6.1
20 | COc1ccc(OC)c(Sc2nc(N)nc(-c3c(Cl)cc4c5c(cccc35)COC4)n2)c1 [Example 145, 4-(5-Chloro-1H,3H-benzo[de]isochromen-6-yl)-6-(2,5-dimethoxyphenylsulfanyl)-[1,3,5]triazin-2-ylamine] | 1.9 | 0.24

Other lines, results leading:

Row | IC50 [1] [µM] | IC50 [2] [µM] | SMILES
21 | 1.1 | 9.2 | Nc1nc(SC2CCCCC2)nc(-c2c(Cl)cc3c4c(cccc24)COC3)n1 [Example 92, 4-(5-chloro-1H,3H-benzo[de]isochromen-6-yl)-6-cyclohexylsulfanyl-[1,3,5]triazin-2-ylamine]
22 | 1.1 | 0.2 | COC(=O)CSc1nc(N)nc(-c2c(Cl)cc3c4c(cccc24)COC3)n1 [Example 111, [4-amino-6-(5-chloro-1H,3H-benzo[de]isochromen-6-yl)-[1,3,5]triazin-2-ylsulfanyl]-acetic acid methyl ester]
23 | 1 | 0.28 | CC(=O)Nc1ccccc1CSc1nc(N)nc(-c2c(Cl)cc3c4c(cccc24)COC3)n1 [Example 143, N-{2-[4-Amino-6-(5-chloro-1H,3H-benzo[de]isochromen-6-yl)-[1,3,5]triazin-2-ylsulfanylmethyl]-phenyl}-acetamide]
24 | 2.8 | 0.11 | CC(=O)NCCCSc1nc(N)nc(-c2c(Cl)cc3c4c(cccc24)COC3)n1 [Example 149, N-{3-[4-amino-6-(5-chloro-1H,3H-benzo[de]isochromen-6-yl)-[1,3,5]triazin-2-ylsulfanyl]-propyl}-acetamide]
25 | 1.3 | 1.1 | NC(=O)CSc1cc(-c2c(Cl)cc3c4c(cccc24)COC3)nc(N)n1 [Example 314, 2-[2-amino-6-(5-chloro-1H,3H-benzo[de]isochromen-6-yl)-pyrimidin-4-ylsulfanyl]-acetamide]
26 | 1.9 | 2.1 | N#CCNC(=O)CSc1cc(-c2c(Cl)cc3c4c(cccc24)COC3)nc(N)n1 [Example 315, 2-[2-amino-6-(5-chloro-1H,3H-benzo[de]isochromen-6-yl)-pyrimidin-4-ylsulfanyl]-N-cyanomethyl-acetamide]
27 | 2.1 | 0.45 | NC(=O)CCSc1cc(-c2c(Cl)cc3c4c(cccc24)COC3)nc(N)n1 [Example 316, 3-[2-amino-6-(5-chloro-1H,3H-benzo[de]isochromen-6-yl)-pyrimidin-4-ylsulfanyl]-propionamide]
28 | 1.3 | 0.41 | Nc1nc(SCCC(=O)NCCO)cc(-c2c(Cl)cc3c4c(cccc24)COC3)n1 [Example 317, 3-[2-amino-6-(5-chloro-1H,3H-benzo[de]isochromen-6-yl)-pyrimidin-4-ylsulfanyl]-N-(2-hydroxy-ethyl)-propionamide]
29 | 1.4 | 0.22 | CNC(=O)CCSc1cc(-c2c(Cl)cc3c4c(cccc24)COC3)nc(N)n1 [Example 318, 3-[2-amino-6-(5-chloro-1H,3H-benzo[de]isochromen-6-yl)-pyrimidin-4-ylsulfanyl]-N-methyl-propionamide]
30 | 2.1 | 0.62 | COCCNC(=O)CCSc1cc(-c2c(Cl)cc3c4c(cccc24)COC3)nc(N)n1 [Example 319, 3-[2-amino-6-(5-chloro-1H,3H-benzo[de]isochromen-6-yl)-pyrimidin-4-ylsulfanyl]-N-(2-methoxy-ethyl)-propionamide]
